Test results: patent US5264429A, “2-spirocyclopropyl cephalosporin sulfone derivatives” (SynPhar Laboratories, Inc., priority 1991, dated 1993)
Each block holds one compound with its values, some of them ahead of it.

What was measured:
[1] = molecular target: T1, human leukocyte elastase (HLE) (Homo sapiens, UniProt P08246); test: Enzyme Assay for Inhibition of HLE; format: biochemical; conditions: HLE 10 nM, pH 7.6, 10 minute preincubation, 30° C.
T1 construct: from tissue; host or cells: human white blood cells
T1 sequence (P08246 30-247 limits assumed): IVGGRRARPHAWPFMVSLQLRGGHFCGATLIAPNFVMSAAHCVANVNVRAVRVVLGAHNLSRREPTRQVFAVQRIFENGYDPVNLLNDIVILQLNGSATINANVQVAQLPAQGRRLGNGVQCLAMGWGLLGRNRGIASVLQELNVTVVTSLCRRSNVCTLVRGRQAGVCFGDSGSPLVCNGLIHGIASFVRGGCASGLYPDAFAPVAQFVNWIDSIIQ
Method: Enzyme Assay for Inhibition of HLE:
Enzyme: Purified elastase from human white blood cells.
Substrate: MeO-succinyl-L-alanyl-L-alanyl-L-prolyl-L-valine-p-nitro-anilide(NA).
Reaction Mixture: 10 mM phosphate buffer (pH 7.6), 500 mM NaCl, 10% dimethylsulfoxide (DMSO), 0.35 mM substrate.
The enzyme activity was determined by monitoring the increase in absorbance at 410 nm caused by the hydrolysis of chromogenic substrates. Inhibition of enzyme by the compounds described were determined after a 10 minute preincubation with the enzyme in reaction mixture minus substrate. Reaction was initiated by the addition of substrate. The concentration of human leukocyte elastase used for assay was at 10 nM.
HLE, CTG, PPE and CTD were tested at 30° C. and the others were […]

aminopeptidase M = molecular target: T2, aminopeptidase M (Sus scrofa, UniProt P15145); test: Inhibition of aminopeptidase M (ATM); format: biochemical, porcine; conditions: aminopeptidase M, pH 7.5, 10 minute preincubation, 22° C.; read-out: IC50 ATM
T2 construct: from tissue; host or cells: porcine kidney
T2 sequence (P15145 1-963): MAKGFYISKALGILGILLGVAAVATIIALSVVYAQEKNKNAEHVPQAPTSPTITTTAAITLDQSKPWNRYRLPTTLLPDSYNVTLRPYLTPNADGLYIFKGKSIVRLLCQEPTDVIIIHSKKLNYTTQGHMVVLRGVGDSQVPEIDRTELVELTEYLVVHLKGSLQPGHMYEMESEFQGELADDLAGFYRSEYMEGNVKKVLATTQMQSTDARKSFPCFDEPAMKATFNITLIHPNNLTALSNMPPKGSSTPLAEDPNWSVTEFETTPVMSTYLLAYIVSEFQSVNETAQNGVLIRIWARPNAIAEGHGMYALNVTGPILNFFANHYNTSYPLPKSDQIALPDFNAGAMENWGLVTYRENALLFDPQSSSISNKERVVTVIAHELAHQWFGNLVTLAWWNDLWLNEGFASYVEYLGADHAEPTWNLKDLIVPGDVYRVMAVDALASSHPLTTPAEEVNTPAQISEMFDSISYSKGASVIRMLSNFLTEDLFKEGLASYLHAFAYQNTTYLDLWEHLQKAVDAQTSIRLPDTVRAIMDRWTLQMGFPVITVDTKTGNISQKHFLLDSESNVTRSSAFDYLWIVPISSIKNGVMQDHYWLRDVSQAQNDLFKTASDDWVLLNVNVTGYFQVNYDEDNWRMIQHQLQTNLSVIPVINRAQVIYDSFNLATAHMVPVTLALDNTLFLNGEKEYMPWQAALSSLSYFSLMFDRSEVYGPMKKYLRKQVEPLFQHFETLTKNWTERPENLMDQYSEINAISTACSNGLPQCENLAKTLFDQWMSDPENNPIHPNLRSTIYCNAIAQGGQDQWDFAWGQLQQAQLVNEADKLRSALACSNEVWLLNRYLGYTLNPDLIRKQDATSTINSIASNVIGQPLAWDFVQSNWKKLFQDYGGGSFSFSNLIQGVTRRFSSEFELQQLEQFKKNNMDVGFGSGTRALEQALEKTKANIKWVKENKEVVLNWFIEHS
Method: (§1) HLE, CTG, PPE and CTD were tested at 30° C. and the others were
(§2) TRY, trypsin; THR, thrombin; PTH, plasmin; CTC, cathepsin C; ATM,
aminopeptidase M; CTG, cathespin G; CTD, cathespin D; PPE, porcine
Enzyme: Purified aminopeptidase M from porcine kidney
Reaction Mixture: 50 mM Tricine buffer (pH 7.5), 500 mM NaCl, 10% DMSO, 2.0 mM Substrate.
(§3) Except for Cathepsin D, the enzyme activities were determined by monitoring the increase in absorbance at 410 nm caused by the hydrolysis of chromogenic substrates. The activity of Cathepsin D was determined by monitoring the absorbance of 5% trichloroacetic acid-soluble material at 280 nm.
(§4) Inhibition of enzymes by the compounds described were determined after a 10 minute preincubation with enzymes in reaction mixtures minus substrate. Reactions were initiated by the addition of substrates. The concentration used for assays were porcine pancreatic elastase at 240 nM and human Cathepsin G at 50 nM. Cathepsin D was used at the concentration that produced approximately 0.15 O.D. increase per 20 min at 280 nm under the standard conditions. All other proteases were assayed at the concentrations that produced approximately 0.1 O.D. change per minute at 410 nm under the standard conditions.

cathepsin G = molecular target: T3, cathepsin G (Homo sapiens, UniProt P08311); test: Inhibition of cathepsin G (CTG); format: biochemical; conditions: cathepsin G 50 nM, pH 7.5, 10 minute preincubation, 30° C.; read-out: IC50 CTG (converted)
T3 construct: from tissue; host or cells: human white blood cells
T3 sequence (P08311 21-244 limits assumed): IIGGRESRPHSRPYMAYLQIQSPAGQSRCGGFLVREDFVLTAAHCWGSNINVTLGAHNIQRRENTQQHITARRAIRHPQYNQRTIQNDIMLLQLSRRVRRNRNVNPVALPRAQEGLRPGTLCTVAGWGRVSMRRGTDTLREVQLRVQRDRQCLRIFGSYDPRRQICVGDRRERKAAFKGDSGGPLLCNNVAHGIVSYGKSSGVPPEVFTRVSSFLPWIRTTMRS
Method: Enzyme: Purified Cathepsin G from human white blood cells
Substrate: N-succinyl-L-alanyl-L-alanyl-L-phenylalanyl-L-phenylalanine -p-NA.
Reaction mixture: 10 mM Phosphate buffer (pH 7.5), 500 mM NaCl, 10% DMSO, 2.0 mM Substrate.

thrombin = molecular target: T4, thrombin (Homo sapiens, UniProt P00734); test: Inhibition of thrombin (THR); format: biochemical; conditions: pH 8.6, 10 minute preincubation, 22° C.
T4 construct: from tissue; host or cells: human plasma
Method: as §1, §2
Enzyme: Purified thrombin from human plasma
Substrate: Tosyl-glycyl-L-prolyl-L-arginine-p-NA acetate
Reaction mixture: 50 mM Tricine-NaOH buffer (pH 8.6), 500 mM NaCl, 0.1% Polyethyleneglycol 8000, 10% DMSO, 0.5 mM Substrate.
as §3, §4

cathepsin C = molecular target: T5, cathepsin C (Bos taurus, UniProt Q3ZCJ8); test: Inhibition of cathepsin C (CTC); format: biochemical, bovine; conditions: cathepsin C, pH 5.4, 10 minute preincubation, 22° C.; read-out: IC50 CTC
T5 construct: from tissue; host or cells: bovine spleen
T5 sequence (Q3ZCJ8 231-394 limits assumed): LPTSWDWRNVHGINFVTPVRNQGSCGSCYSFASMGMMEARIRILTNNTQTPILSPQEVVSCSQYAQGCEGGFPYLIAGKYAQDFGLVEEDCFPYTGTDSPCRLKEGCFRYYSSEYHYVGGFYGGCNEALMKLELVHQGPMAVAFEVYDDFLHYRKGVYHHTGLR
T5 sequence (Q3ZCJ8 395-463 limits assumed): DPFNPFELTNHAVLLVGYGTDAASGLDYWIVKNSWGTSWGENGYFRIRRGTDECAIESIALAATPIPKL
T5 sequence (Q3ZCJ8 25-134 limits assumed): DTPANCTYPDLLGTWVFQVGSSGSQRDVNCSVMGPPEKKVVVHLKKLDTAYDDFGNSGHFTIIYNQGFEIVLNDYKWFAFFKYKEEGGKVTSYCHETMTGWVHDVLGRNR
Method: as §1, §2
Enzyme: Purified cathepsin C from bovine spleen
Substrate: Glycyl-L-phenylalanine-pNA
Reaction mixture: 50 mM Citrate buffer (pH 5.4), 5 mM B-Mercaptoethanol, 150 mM NaCl, 10% DMSO, 20 mM Substrate.
as §3, §4

plasmin = molecular target: T6, plasmin (Homo sapiens, UniProt P00747); test: Inhibition of plasmin (PTH); format: biochemical; conditions: pH 8.9, 10 minute preincubation, 22° C.
T6 construct: from tissue; host or cells: human plasma
T6 sequence (P00747 581-810 limits assumed): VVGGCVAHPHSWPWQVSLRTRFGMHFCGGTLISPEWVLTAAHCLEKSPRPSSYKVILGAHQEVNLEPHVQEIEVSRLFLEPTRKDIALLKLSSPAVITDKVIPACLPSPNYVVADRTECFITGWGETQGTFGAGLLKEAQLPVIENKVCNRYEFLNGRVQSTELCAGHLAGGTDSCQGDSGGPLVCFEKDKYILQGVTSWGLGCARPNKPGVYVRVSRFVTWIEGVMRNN
T6 sequence (P00747 97-580 partner limits assumed): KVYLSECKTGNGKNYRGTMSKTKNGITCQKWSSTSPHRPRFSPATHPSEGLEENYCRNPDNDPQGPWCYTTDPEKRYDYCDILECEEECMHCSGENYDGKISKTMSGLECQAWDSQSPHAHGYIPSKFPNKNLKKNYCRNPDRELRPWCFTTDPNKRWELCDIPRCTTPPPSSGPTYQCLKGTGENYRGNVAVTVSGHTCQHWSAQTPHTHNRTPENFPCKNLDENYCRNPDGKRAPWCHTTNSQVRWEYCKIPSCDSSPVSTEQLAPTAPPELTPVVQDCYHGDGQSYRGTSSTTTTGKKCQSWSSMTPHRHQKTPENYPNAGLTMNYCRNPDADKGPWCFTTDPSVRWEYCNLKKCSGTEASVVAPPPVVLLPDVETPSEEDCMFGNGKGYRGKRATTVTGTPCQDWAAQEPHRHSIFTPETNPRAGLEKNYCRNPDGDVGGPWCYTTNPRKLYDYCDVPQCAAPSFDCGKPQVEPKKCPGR
Method: as §1, §2
Enzyme: Purified plasmin from human plasma Substrate: Tosyl-glyclyl-L-prolyl-L-lysine-pNA acetate
Reaction mixture: 50 mM Tris-HCl buffer (pH 8.9), 500 mM NaCl, 5% DMSO, 0.5 mM Substrate.
as §3, §4

cathepsin D = molecular target: T7, cathepsin D (Bos taurus, UniProt P80209); test: Inhibition of cathepsin D (CTD); format: biochemical, bovine
T7 construct: from tissue; host or cells: bovine spleen
T7 sequence (P80209 45-390): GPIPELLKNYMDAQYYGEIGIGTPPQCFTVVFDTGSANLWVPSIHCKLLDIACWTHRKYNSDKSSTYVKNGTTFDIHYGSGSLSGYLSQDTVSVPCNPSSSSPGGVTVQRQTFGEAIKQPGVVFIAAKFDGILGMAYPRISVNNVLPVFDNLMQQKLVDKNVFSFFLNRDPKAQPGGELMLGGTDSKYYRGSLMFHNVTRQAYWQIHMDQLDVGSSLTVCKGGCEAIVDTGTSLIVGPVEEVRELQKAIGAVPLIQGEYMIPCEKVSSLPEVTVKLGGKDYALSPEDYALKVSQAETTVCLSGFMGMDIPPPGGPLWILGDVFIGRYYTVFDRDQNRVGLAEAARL
Method: as §4, with “Except for Cathepsin D, the enzyme activities were determined by monitoring the increase in absorbance at 410 nm caused by the hydrolysis of chromogenic substrates. The activity of Cathepsin D was determined by monitoring the absorbance of 5% trichloroacetic acid-soluble material at 280 nm. Inhibition” for “Inhibition”, “The concentration used for assays were porcine pancreatic elastase at 240 nM and human Cathepsin G at 50 nM.” left out

trypsin = molecular target: T8, trypsin (Bos taurus, UniProt P00760); test: Inhibition of trypsin (TRY); format: biochemical, bovine; conditions: trypsin, pH 8.8, 10 minute preincubation, 22° C.; read-out: IC50 TRY (converted)
T8 construct: from tissue; host or cells: bovine pancreas
T8 sequence (P00760 24-246): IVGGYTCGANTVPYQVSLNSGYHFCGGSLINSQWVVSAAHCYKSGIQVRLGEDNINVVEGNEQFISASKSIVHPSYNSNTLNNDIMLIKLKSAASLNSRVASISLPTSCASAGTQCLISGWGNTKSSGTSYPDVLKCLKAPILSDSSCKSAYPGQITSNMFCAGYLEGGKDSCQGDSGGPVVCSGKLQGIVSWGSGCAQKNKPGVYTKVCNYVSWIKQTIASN

- IC50 [1]: 0.0489 µM
Compound: Cc1nnc(SCC2=C(C(=O)OC(c3ccccc3)c3ccccc3)N3C(=O)[C@H](Br)[C@H]3[S+]([O-])C23CC3(c2ccc(Cl)cc2)c2ccc(Cl)cc2)s1 (stereo partly drawn) [Benzhydryl-7α-bromo-2-spiro[2',2'-(4',4'-dichloro)diphenyl]-cyclopropyl-3-[(5-methyl-1,3,4-thiadiazol-2-yl)thiomethyl]-3-cephem-4-carboxylate-1-oxide]

Compound: CC(=O)OCC1=C(C(=O)OC(C)(C)C)N2C(=O)[C@H](Cl)[C@H]2S(=O)(=O)C12CC2(c1ccccc1)c1ccccc1 (stereo partly drawn) [Example 4, t-Butyl 7α-chloro-2-spiro(2',2'-diphenyl)cyclopropyl-3-acetoxymethyl-3-cephem-4-carboxylate-1,1-dioxide]
- IC50 [1]: 0.0914 µM

- IC50 [1]: 0.149 µM
Compound: CC1=C(C(=O)OC(c2ccccc2)c2ccccc2)N2C(=O)CC2S(=O)(=O)C12CC2(c1ccccc1)c1ccccc1 (stereo not shown) [Example 5, Benzhydryl 7,7-dihydro-2-spiro(2',2'-diphenyl)cyclopropyl-3-methyl-3-cephem-4-carboxylate-1,1-dioxide]

Compound: CO[C@H]1C(=O)N2C(C(=O)N3CCCCC3)=C(C)C3(CC3(c3ccccc3)c3ccccc3)S(=O)(=O)[C@H]12 (stereo partly drawn) [Example 11, 7α-Methoxy-2-spiro (2',2'-diphenyl)cyclopropyl-3-methyl-3-cephem-4-piperidine carboxamide-1,1-dioxide]
- IC50 (aminopeptidase M): > 10 µM
- IC50 [1]: 0.0107 µM
- IC50 (cathepsin G): > 10 µM
- IC50 (thrombin): > 39.9 µM
- IC50 (cathepsin C): > 10 µM
- IC50 (plasmin): > 10 µM
- IC50 (cathepsin D): 0.0316 µM
- IC50 (trypsin): > 10 µM

- IC50 [1]: 0.00657 µM
Compound: CC1=C(C(=O)OC(c2ccccc2)c2ccccc2)N2C(=O)[C@H](Br)[C@H]2S(=O)(=O)C12CC2c1ccccc1 (stereo partly drawn) [Example 13 (3), Benzhydryl 7α-bromo-2-spiro(2'-phenyl)cyclopropyl-3-methyl-3-cephem-4-carboxylate-1,1-dioxide]

- IC50 [1]: 0.00404 µM
Compound: COc1ccc(COC(=O)C2=C(CCl)C3(CC3(c3ccccc3)c3ccccc3)S(=O)(=O)[C@@H]3[C@@H](Br)C(=O)N23)cc1 (stereo partly drawn) [p-Methoxybenzyl 7α-bromo-2-spiro(2',2'-diphenyl) cyclopropyl-3-chloromethyl-3-cephem-4-carboxylate-1,1-dioxide]
